Test results: ChEMBL document CHEMBL5331124, “Degradation of Hexokinase 2 Blocks Glycolysis and Induces GSDME-Dependent Pyroptosis to Amplify Immunogenic Cell Death for Breast Cancer Therapy” (J Med Chem, 2023)
The source made the active and inactive calls.

How the values were obtained:
HGC-27 = assay: Antiproliferative activity against human HGC-27 cells assessed as cell growth inhibition measured for 72 hrs by MTT assay; format: functional, cell-based; conditions: HGC-27, 72 h
[1] = target: T1, Hexokinase-2 (Homo sapiens) (UniProt P52789); assay: Induction of HK2 degradation in human MDA-MB-231 cells upto 200 uM measured at 12 to 36 hrs; format: cell-based; conditions: time 12-36 hrs
T1 sequence (whole entry): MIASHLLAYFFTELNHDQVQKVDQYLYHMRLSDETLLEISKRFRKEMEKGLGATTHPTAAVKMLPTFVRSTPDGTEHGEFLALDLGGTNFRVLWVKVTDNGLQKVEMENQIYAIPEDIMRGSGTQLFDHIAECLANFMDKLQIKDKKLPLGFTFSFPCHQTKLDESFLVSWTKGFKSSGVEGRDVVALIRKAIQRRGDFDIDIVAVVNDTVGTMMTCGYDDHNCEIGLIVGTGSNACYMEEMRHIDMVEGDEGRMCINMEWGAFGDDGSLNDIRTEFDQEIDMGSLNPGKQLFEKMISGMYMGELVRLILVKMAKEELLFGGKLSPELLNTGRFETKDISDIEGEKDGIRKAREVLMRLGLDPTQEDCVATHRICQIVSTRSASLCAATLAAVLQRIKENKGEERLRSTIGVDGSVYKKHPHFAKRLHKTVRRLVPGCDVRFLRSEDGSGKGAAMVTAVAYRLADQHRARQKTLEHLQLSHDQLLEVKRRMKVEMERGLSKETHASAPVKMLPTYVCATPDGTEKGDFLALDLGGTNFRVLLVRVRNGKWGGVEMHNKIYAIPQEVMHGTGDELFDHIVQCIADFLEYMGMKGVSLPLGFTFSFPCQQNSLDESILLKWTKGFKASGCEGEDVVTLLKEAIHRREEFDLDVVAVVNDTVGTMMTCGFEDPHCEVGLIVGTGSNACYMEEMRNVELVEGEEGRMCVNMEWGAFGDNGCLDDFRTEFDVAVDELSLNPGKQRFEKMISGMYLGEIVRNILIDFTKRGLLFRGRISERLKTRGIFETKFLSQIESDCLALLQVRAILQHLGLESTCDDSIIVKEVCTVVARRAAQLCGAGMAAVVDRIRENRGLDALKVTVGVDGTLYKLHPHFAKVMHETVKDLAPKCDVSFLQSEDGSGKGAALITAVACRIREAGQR

4T1 [2] = assay: Inhibition of glycolysis in mouse 4T1 cells assessed as reduction in oxygen consumption rate at 20 uM incubated for 1 to 4 hrs by seahorse analyzer method; format: functional, cell-based; conditions: time 1-4 hrs
4T1 [3] = assay: Induction of mitochondrial damage in mouse 4T1 cells at 20 uM measured for 36 hrs by Hoechst 33342 staining based confocal fluorescence microscopic analysis; format: functional, cell-based
4T1 [4] = assay: Induction of mitochondrial damage in mouse 4T1 cells assessed as reduction in lactic acid production at 20 uM measured for 36 hrs; format: functional, cell-based
4T1 [5] = assay: Induction of pyroptosis in mouse 4T1 cells assessed as early apoptotic cells at 20 uM incubated for 36 hrs by annexin V-FITC staining based flow cytometry analysis (reference value: 4.76 %); format: functional
4T1 [6] = assay: Antitumor immunity against mouse 4T1 cells implanted in BALB/c mouse model assessed as increase in HMGB1 release in cell supernatant at 20 uM measured for 36 hrs by ELISA analysis; format: functional, cell-based
4T1 [7] = assay: Antitumor immunity against mouse 4T1 cells implanted in BALB/c mouse model assessed as increase in ATP release in cell supernatant at 20 uM measured for 36 hrs by ELISA analysis; format: functional, cell-based
[8] = Toxicity in BALB/c mouse implanted with mouse 4T1 cells assessed as pathological changes in liver at 50 mg/kg, ip measured after 25 days by Hematoxylin -eosin staining based analysis; format: organism-based; conditions: in vivo, 600 h, time 25 day
[9] = Toxicity in BALB/c mouse implanted with mouse 4T1 cells assessed as effect on platelet count at 50 mg/kg, ip measured after 25 days by routine blood test; format: organism-based; conditions: in vivo, 600 h, time 25 day
[10] = Toxicity in BALB/c mouse implanted with mouse 4T1 cells assessed as effect on corpuscular volume at 50 mg/kg, ip measured after 25 days by routine blood test; format: organism-based; conditions: in vivo, 600 h, time 25 day
[11] = Toxicity in BALB/c mouse implanted with mouse 4T1 cells assessed as effect on red blood cells at 50 mg/kg, ip measured after 25 days by routine blood test; format: organism-based; conditions: in vivo, 600 h, time 25 day
[12] = Toxicity in BALB/c mouse implanted with mouse 4T1 cells assessed as effect on mean corpuscular hemoglobin at 50 mg/kg, ip measured after 25 days by routine blood test; format: organism-based; conditions: in vivo, 600 h, time 25 day
4T1 [13] = assay: Antitumor activity against mouse 4T1 cells implanted in BALB/c mouse model assessed as reduction in HK2 expression level at 50 mg/kg, ip measured after 25 days by Western blot analysis; format: functional, organism-based; conditions: time 25.0 day
4T1 [14] = assay: Antitumor immunity against mouse 4T1 cells implanted in BALB/c mouse model assessed as reduction tumor cell proliferation at 50 mg/kg, ip measured after 25 days by Ki67 staining based analysis; format: functional, organism-based; conditions: time 25.0 day
4T1 [15] = assay: Antitumor immunity against mouse 4T1 cells implanted in BALB/c mouse model assessed as upregulation of IFN-gamma expression in mouse tumor by ELISA analysis; format: functional, cell-based
4T1 [16] = assay: Antitumor immunity against mouse 4T1 cells implanted in BALB/c mouse model assessed as downregulation of IL-10 expression in mouse tumor by ELISA analysis; format: functional, cell-based
4T1 [17] = assay: Antitumor immunity against mouse 4T1 cells implanted in BALB/c mouse model assessed as increase in CRT accumulation in tumor; format: functional, cell-based
4T1 [18] = assay: Antitumor immunity activity against mouse 4T1 cells implanted in BALB/c mouse assessed as increase in proportion of […] positive T cells in tumor by flow cytometry analysis; format: functional, cell-based
[19] = Toxicity in BALB/c nude mouse xenografted with human MDA-MB-231 cells assessed as effect on mean corpuscular volume at 50 mg/kg, ip measured after 30 days by routine blood test; format: organism-based; conditions: in vivo, 720 h, time 30 day
[20] = Toxicity in BALB/c nude mouse xenografted with human MDA-MB-231 cells assessed as effect on hemoglobin level at 50 mg/kg, ip measured after 30 days by routine blood test; format: organism-based; conditions: in vivo, 720 h, time 30 day
[21] = Toxicity in BALB/c nude mouse xenografted with human MDA-MB-231 cells assessed as effect on mean corpuscular hemoglobin concentration at 50 mg/kg, ip measured after 30 days by routine blood test; format: organism-based; conditions: in vivo, 720 h, time 30 day
[22] = Toxicity in BALB/c nude mouse xenografted with human MDA-MB-231 cells assessed as effect on red blood cells at 50 mg/kg, ip measured after 30 days by routine blood test; format: organism-based; conditions: in vivo, 720 h, time 30 day
MDA-MB-231 = assay: Antitumor activity against human MDA-MB-231 cells xenografted in BALB/c nude mouse assessed as increase in N-terminal GSDME level at 50 mg/kg, ip measured after 28 days; format: functional, organism-based; conditions: time 28.0 day
[23] = Toxicity in BALB/c mouse implanted with mouse 4T1 cells assessed as change in body weight at 50 mg/kg, ip measured after 23 days in presence of cisplatin; format: organism-based; conditions: in vivo, 552 h, time 23 day
[24] = Toxicity in BALB/c mouse implanted with mouse 4T1 cells assessed as pathological changes in lung at 50 mg/kg, ip measured after 25 days in presence of cisplatin by Hematoxylin -eosin staining based analysis; format: organism-based; conditions: in vivo, 600 h, time 25 day

O=C1CCC(N2C(=O)c3cccc(NCCCCNC(=O)c4nn(Cc5ccc(Cl)cc5Cl)c5ccccc45)c3C2=O)C(=O)N1 (stereo unspecified)
6.11 µM: IC50 (HGC-27)
Non-Toxic: Activity [8] | Activity [9] | Activity [10] | Activity [11] | Activity [12] | Activity [19] | Activity [20] | Activity [21] | Activity [22] | Activity [23] | Activity [24]
9.85%: Activity (4T1 [5])
active: Activity [1] | inhibition (4T1 [2]) | Activity (4T1 [3]) | Activity (4T1 [4]) | Activity (4T1 [6]) | Activity (4T1 [7]) | Activity (4T1 [13]) | Activity (4T1 [14]) | Activity (4T1 [15]) | Activity (4T1 [16]) | Activity (4T1 [17]) | Activity (4T1 [18]) | Activity (MDA-MB-231)
